Assay results: patent publication US20230295133A1, “PROCESS FOR PREPARING A COMPOUND USEFUL TO TREAT MYCOSES” (PULMOCIDE LIMITED, priority 2014, published 2023)
Converted amounts (≈) assume the structure as drawn. Read-outs that look alike come from different tables or passages of the source.

Columns and labels:
BEAS2B cells = assay: Cell viability: resazurin assay; format: cell-based, human; conditions: n = 3-5
Method in brief: (§1)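 BEAS2B cells in RPMI-LHC8, exposed to compound for 1 day at 37 °C (0.5% DMSO final), then resazurin added for a further 4 h. Fluorescence (ex 545/em 590 nm) gives % viability loss vs 0.5% DMSO vehicle; CC50 from concentration-response curve.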

[1] = system: Aspergillus fumigatus NCPF2010; assay: Broth microdilution assay (modified EUCAST); format: cell-based; conditions: Aspergillus fumigatus
Method in brief: (§2)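 Spores from 3-day Sabouraud cultures (working suspension 2 × 10^5 spores/mL) were added to an equal volume of RPMI-1640 (2 mM L-glutamine, 0.5% BSA, 2% glucose, 0.165 M MOPS, pH 7) containing compound, in quadruplicate. After 48 hr at 35 °C, OD530 gave percent inhibition. MIC50, MIC75 and MIC90 came from concentration-response curves.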

[2] = system: Chaectomium globosum ATCC44699; assay: Fungus panel screening, CLSI broth microdilution; format: cell-based
Experimental: (§3) Fungus panel screening was conducted by Eurofins Panlabs Inc. The MIC and MIC50 values of the test articles were determined following the guidelines of the Clinical and Laboratory Standards Institute, broth microdilution methods for yeast (CLSI M27-A2), (CLSI, 2002) and for filamentous fungi (CLSI M38-A), (CLSI, 2008).

[3] = system: Aspergillus flavus ATCC204304; assay: Fungus panel screening, CLSI broth microdilution; format: cell-based
Experimental: as §3

[4] = system: Cryptococcus neoformans ATCC24067; assay: Fungus panel screening, CLSI broth microdilution; format: cell-based
Experimental: as §3

[5] = system: Aspergillus fumigatus NCPF7100; assay: Broth microdilution assay (modified EUCAST); format: cell-based; conditions: Aspergillus fumigatus, NCPF7100, read-out: MIC75 against Aspergillus fumigatus isolate NCPF7100
[6] = system: aspergillus fumigatus (ATCC 13073 [strain: NIH 5233]); assay: In vivo anti-fungal activity, prophylactic and therapeutic treatment of infected immunocompromised neutropenic mice; design: species or system A/J mice; conditions: prophylactic treatment (days 0, 1, 2 and 3); 0.4 mg/mL
[7] = system: aspergillus fumigatus infection of BEAS2B cells; assay: Aspergillus fumigatus infection of bronchial epithelial cells (GM in supernatant); format: cell-based; conditions: Aspergillus fumigatus, read-out: MIC50 Infection of BEAS2B cells
Method in brief: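 BEAS2B cells in 10% FBS RPMI-1640 pre-treated with compound (0.5% DMSO final) for 1 hr at 35 °C, then infected with A. fumigatus conidia (0.5×10^5/ml suspension) for 24 hr at 35 °C. Galactomannan in 1:20-diluted supernatant measured by Platelia GM-EIA; IC50 from percent-inhibition concentration-response curves.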

[8] = Cell viability: resazurin assay; format: cell-based, human; conditions: human, BEAS2B cells; n = 3-5
Method in brief: as §1

[9] = system: Aspergillus fumigatus L98H (TR34/L98H); assay: Broth microdilution assay (modified EUCAST); format: cell-based; conditions: Aspergillus fumigatus, read-out: MIC75 against Aspergillus fumigatus isolate L98H
Method in brief: as §2

[10] = system: Aspergillus fumigatus NCPF7099; assay: Broth microdilution assay (modified EUCAST); format: cell-based; conditions: Aspergillus fumigatus, NCPF7099, n = 3, read-out: MIC75 against Aspergillus fumigatus isolate NCPF7099
Method in brief: as §2

[11] = system: Aspergillus fumigatus (NCPF2010); assay: Resazurin-microtitre assay of planktonic fungus growth; format: cell-based; conditions: Aspergillus fumigatus
Experimental: This assay was conducted using a modified, published method (Monteiro et al., 2012). Spores of aspergillus fumigatus (NCPF2010, Public Health England, Wiltshire) were cultured in Sabouraud dextrose agar for 3 days. A stock spore suspension was prepared from a Sabouraud dextrose agar culture by washing with PBS-tween (10 mL; PBS containing 0.05% Tween-20, 100 U/mL Penicillin and 100 U/mL Streptomycin). The spore count was assessed using a Neubauer haemocytometer and, using PBS adjusted to 10^6 spores/mL. A working suspension of spores (10^4 spores/mL) was prepared in filter sterilised MOPS RPMI-1640 (50 mL; RPMI-1640 containing 2 mM L-glutamine, 2% glucose and 0.165 M MOPS, buffered to pH 7 with NaOH). Resazurin sodium salt (100 µL of 1% solution; Sigma-Aldrich, Dorset, UK) was added to the spore suspension and mixed well. The spore suspension-resazurin mixture (100 µL/well) was added to 384-well plates (Catalogue number 353962, BD Falcon, Oxford, UK).
Simultaneously, test compounds (0.5 µL DMSO solution) were added to 100 µL of the spore-resazurin mixture in quadruplicate to provide a final DMSO solution of 0.5% using an Integra VIAFLO 96 (Intergra, Zizers, Switzerland). For non-spore control wells, MOPS-RPMI-resazurin solution (100 µL) was added instead of the spore-resazurin mixture. The plate was covered with a Breathe Easier membrane (Catalogue No Z763624, Sigma-Aldrich, Dorset, UK), and incubated (35° C., 5% CO2) until fluorescence in the inoculated wells was double that of the control wells (around 24 hr). The fluorescence of each well (545 nm (excitation) / 590 nm (emission), gain 800, focal height 5.5 mm) was determined using a multi-scanner (Clariostar: BMG, Buckinghamshire, UK). The percentage inhibition for each well was calculated and the MIC50, MIC75 and MIC90 values were calculated from the concentration-response curve generated for each test compound.

[12] = 50% inhibition by visual inspection (CLSI)
[13] = 100% inhibition by visual inspection (CLSI), read-out: MIC100

`C[C@@H](c1ncncc1F)[C@](O)(Cn1cncn1)c1ccc(F)cc1F` [Voriconazole] gave a CC50 (BEAS2B cells) greater than 28.6 µM, an MIC ([1]; NCPF2010, broth microdilution assay, n = 3, read-out: MIC75 against Aspergillus fumigatus isolate NCPF2010) of 0.496 µM (≈ 173 ng/mL) and an MIC50 [2, 12] of 0.5 µg/mL (≈ 1.43 µM). The MIC [2, 13] was 1 µg/mL (≈ 2.86 µM), the MIC50 [3, 12] was 1 µg/mL (≈ 2.86 µM) and the MIC [3, 13] was 2 µg/mL (≈ 5.73 µM). It also gave an MIC50 [4, 12] of 0.016 µg/mL (≈ 0.0458 µM) and an MIC [4, 13] of 1 µg/mL (≈ 2.86 µM).

For `Cc1cc(N2CCN(c3ccc(C(=O)Nc4ccc(F)cc4F)cc3)CC2)ccc1OC[C@@H]1CO[C@@](Cn2cncn2)(c2ccc(F)cc2F)C1` [Example 2, 4-(4-(4-(((3R,5R)-5-((1H-1,2,4-Triazol-1-yl)Methyl)-5-(2,4-Difluorophenyl) Tetrahydrofuran-3-yl)Methoxy)-3-Methylphenyl)Piperazin-1-yl)-N-(2,4-Difluorophenyl) Benzamide], the MIC [5] was 0.0213 µM (≈ 14.9 ng/mL), the “% Inhibition versus Infected Controls, GM in BALF” value [6] was 43% and the “% Inhibition versus Infected Controls, GM in serum” value [6] was 27%. The “% Inhibition versus Infected Controls, Lung Fungal Load” value [6] was 25%, the MIC50 [7] was 0.00142 µM (≈ 0.995 ng/mL) and the CC50 at 1 day [8] was greater than 14.3 µM. For the same molecule, the MIC [9] was 0.0816 µM (≈ 57.2 ng/mL), the MIC ([1]; NCPF2010, read-out: MIC75 against Aspergillus fumigatus isolate NCPF2010) was 0.007 µM (≈ 4.91 ng/mL) and the MIC [10] was 0.0283 µM (≈ 19.8 ng/mL). The MIC50 ([11]; NCPF2010, read-out: MIC50 Planktonic fungal growth) was 0.00074 µM (≈ 0.519 ng/mL) and the MIC ([11]; NCPF2010, read-out: MIC75 Planktonic fungal growth) was 0.00306 µM (≈ 2.14 ng/mL).
